Experimental data: ChEMBL document CHEMBL1201862, “PubChem BioAssay data set” (2004)
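Where inhibition never reached the appropriate level, the endpoint shown equals the highest concentration tested. Otherwise, values were interpolated linearly from a five-concentration, 48-hour dose response in 96-well plates. GI50 = concentration required for 50% inhibition of growth.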 Activity calls are given as the source filed them. Cut-off read from the data, not from the text of the source: active = GI50 up to about 1.1 µM and inactive = higher.

Key:
Test in all cases: growth of human tumour cells (NCI), 48 h
[1] = test system: UO-31
[2] = test system: HOP-62
[3] = test system: RXF 393
[4] = test system: KM12
[5] = test system: LXFL 529
[6] = test system: NCI-H522
[7] = test system: COLO 205
[8] = test system: HCT-15
[9] = test system: SK-MEL-2
[10] = test system: SK-OV-3
[11] = test system: DLD-1
[12] = test system: U-251
[13] = test system: EKVX
[14] = test system: DMS-273
[15] = test system: HCT-116
[16] = test system: CAKI-1
[17] = test system: HOP-18
[18] = test system: UACC-257
[19] = test system: ACHN
[20] = test system: M14
[21] = test system: SR
[22] = test system: SN12C
[23] = test system: XF498
[24] = test system: LOX IMVI
[25] = test system: SNB-75
[26] = test system: IGROV-1
[27] = test system: OVCAR-5
[28] = test system: SF-539
[29] = test system: OVCAR-3
[30] = test system: CCRF-CEM
[31] = test system: OVCAR-8
[32] = test system: M19-MEL
[33] = test system: NCI-H226
[34] = test system: SK-MEL-28
[35] = test system: UACC-62
[36] = test system: SNB-78
[37] = test system: A549
[38] = test system: SNB-19
[39] = test system: SF-268
[40] = test system: Malme-3M
[41] = test system: NCI-H23
[42] = test system: A498
[43] = test system: TK-10
[44] = test system: HT-29
[45] = test system: OVCAR-4
[46] = test system: HL-60
[47] = test system: SF-295
[48] = test system: K562
[49] = test system: HOP-92
[50] = test system: SW-620
[51] = test system: 786-0
[52] = test system: NCI-H460
[53] = test system: HCC 2998
[54] = test system: DMS-114
[55] = test system: MOLT-4
[56] = test system: RPMI-8226
[57] = test system: KM-20L2
[58] = test system: SK-MEL-5

SMILES: N#Cc1cccc(/C=N/N/C(N)=N/O)c1
- GI50 [1]: 49.1 µM (inactive)
- GI50 [2]: 92.7 µM (inactive)
- GI50 [3]: 57.7 µM (inactive)
- GI50 [4]: 52.7 µM (inactive)
- GI50 [5]: 39.4 µM (inactive)
- GI50 [6]: 21.6 µM (inactive)
- GI50 [7]: > 100 µM (inactive)
- GI50 [8]: 68.5 µM
- GI50 [9]: 72.6 µM (inactive)
- GI50 [10]: 27.5 µM (inactive)
- GI50 [11]: 53.2 µM (inactive)
- GI50 [12]: 59.6 µM (inactive)
- GI50 [13]: 9.18 µM (inactive)
- GI50 [14]: > 100 µM (inactive)
- GI50 [15]: > 100 µM (inactive)
- GI50 [16]: 17.1 µM (inactive)
- GI50 [17]: 15.7 µM (inactive)
- GI50 [18]: > 100 µM (inactive)
- GI50 [19]: 31.7 µM (inactive)
- GI50 [20]: 41.4 µM (inactive)
- GI50 [21]: 48.1 µM (inactive)
- GI50 [22]: 99.8 µM (inactive)
- GI50 [23]: 23.8 µM (inactive)
- GI50 [24]: 21.2 µM (inactive)
- GI50 [25]: 14.8 µM (inactive)
- GI50 [26]: 24.2 µM (inactive)
- GI50 [27]: > 100 µM (inactive)
- GI50 [28]: > 100 µM (inactive)
- GI50 [29]: > 100 µM (inactive)
- GI50 [30]: 57.7 µM (inactive)
- GI50 [31]: 78.3 µM (inactive)
- GI50 [32]: > 100 µM (inactive)
- GI50 [33]: 56.1 µM (inactive)
- GI50 [34]: > 100 µM (inactive)
- GI50 [35]: 13 µM (inactive)
- GI50 [36]: > 100 µM (inactive)
- GI50 [37]: 24.9 µM (inactive)
- GI50 [38]: > 100 µM (inactive)
- GI50 [39]: 26.3 µM (inactive)
- GI50 [40]: 85.1 µM (inactive)
- GI50 [41]: 97.9 µM (inactive)
- GI50 [42]: 33.3 µM (inactive)
- GI50 [43]: 37.6 µM (inactive)
- GI50 [44]: 45.5 µM (inactive)
- GI50 [45]: 20.9 µM (inactive)
- GI50 [46]: 15.2 µM (inactive)
- GI50 [47]: > 100 µM (inactive)
- GI50 [48]: 41.2 µM (inactive)
- GI50 [49]: 39.4 µM (inactive)
- GI50 [50]: > 100 µM (inactive)
- GI50 [51]: > 100 µM (inactive)
- GI50 [52]: 32.1 µM (inactive)

SMILES: O=C(Oc1ccc(Cl)cc1[N+](=O)[O-])c1ccccc1
- GI50 [1]: 86.5 µM (inactive)
- GI50 [2]: > 100 µM (inactive)
- GI50 [3]: 24.1 µM (inactive)
- GI50 [4]: > 100 µM (inactive)
- GI50 [5]: > 100 µM (inactive)
- GI50 [7]: > 100 µM (inactive)
- GI50 [8]: > 100 µM
- GI50 [9]: > 100 µM (inactive)
- GI50 [10]: > 100 µM (inactive)
- GI50 [11]: > 100 µM (inactive)
- GI50 [12]: 38.5 µM (inactive)
- GI50 [53]: > 100 µM (inactive)
- GI50 [13]: > 100 µM (inactive)
- GI50 [14]: > 100 µM (inactive)
- GI50 [15]: > 100 µM (inactive)
- GI50 [17]: > 100 µM (inactive)
- GI50 [18]: > 100 µM (inactive)
- GI50 [19]: > 100 µM (inactive)
- GI50 [20]: > 100 µM (inactive)
- GI50 [21]: > 100 µM (inactive)
- GI50 [22]: > 100 µM (inactive)
- GI50 [23]: 0.0435 µM (active)
- GI50 [24]: > 100 µM (inactive)
- GI50 [25]: 90.8 µM (inactive)
- GI50 [26]: > 100 µM (inactive)
- GI50 [27]: 57.1 µM (inactive)
- GI50 [28]: > 100 µM (inactive)
- GI50 [29]: 69.5 µM (inactive)
- GI50 [30]: 73.6 µM (inactive)
- GI50 [31]: > 100 µM (inactive)
- GI50 [32]: > 100 µM (inactive)
- GI50 [33]: 92.9 µM (inactive)
- GI50 [54]: > 100 µM (inactive)
- GI50 [34]: > 100 µM (inactive)
- GI50 [35]: > 100 µM (inactive)
- GI50 [36]: > 100 µM (inactive)
- GI50 [37]: > 100 µM (inactive)
- GI50 [38]: > 100 µM (inactive)
- GI50 [55]: > 100 µM (inactive)
- GI50 [39]: > 100 µM (inactive)
- GI50 [40]: > 100 µM (inactive)
- GI50 [56]: 91.4 µM (inactive)
- GI50 [41]: 69.2 µM (inactive)
- GI50 [42]: > 100 µM (inactive)
- GI50 [43]: > 100 µM (inactive)
- GI50 [44]: > 100 µM (inactive)
- GI50 [57]: > 100 µM (inactive)
- GI50 [45]: 43.4 µM (inactive)
- GI50 [46]: 65.6 µM (inactive)
- GI50 [58]: 16 µM (inactive)
- GI50 [47]: > 100 µM (inactive)
- GI50 [48]: > 100 µM (inactive)
- GI50 [49]: > 100 µM (inactive)
- GI50 [50]: > 100 µM (inactive)
- GI50 [52]: > 100 µM (inactive)
